From US5652353A, “DNAs encoding tumor necrosis factor-α muteins” (priority 1990, dated 1997)

Legend:
human p55-TNF-R = assay: Filter binding competition of 125I-TNFα on purified p55-TNF-R from HL60 cells; details: with respect to TNFα
Method: (§1) The filters were blocked with blocking buffer (50 mM Tris, 140 mM NaCl, 5 mM EDTA, 0.02% NaN3, 1% defatted milk powder) for 1.5 hours at room temperature. […] The filters were washed with blocking buffer (2× for 5 min.) and with H2 O (1× for 5 min.), air dried, and counted in a γ-counter.

Hep-2 cells = type: cell-based, human; details: in words; accuracy of assay a factor of 3
Method: (§2) The amount of protein was determined by the Biorad (Richmond, Calif., USA) protein dye reagent according to the instructions of the manufacturer. The purity of the TNF muteins was determined by SDS-PAGE. The cytotoxic activity on mouse L929 cells was determined using the standard L929 assay (Ruff and Gifford in "Lymphokines", ed. by E. Pick, Vol. 2, 235-275, Academic Press, 1981, Orlando, USA). The cytotoxicity assay on Hep-2 cells was performed the same way as the L929 assay with the only exception that cycloheximide (50 μg/ml) was added instead of actinomycin D.

[1] = system: U937 cells (predominantly but not exclusively p75-TNF-R); assay: Competition analysis: displacement of 125I-TNF-α by unlabeled mutant TNF on U937 cells; type: binding, human; details: for Mean dpm: Table B
Method: Hep-2 [ATCC No. CCL 23], U937 [ATCC No. CRL 1593] and RAJI [ATCC No. CCL 86] cells were grown in RPMI 1640 medium, supplemented with 10% (v/v) inactivated .fetal calf serum, L-glutamine (2 mM), sodium pyruvate (1 mM), 2-mercaptoethanol (5×10^-5 M), 1% of a 100× mixture of non-essential amino acids [Gibro Laboratories, Paisley, GB] and gentamycine ([…]). The non-adherent cells (U937 and RAJI) were harvested after reaching a density of 1×10^6 cells/ml. For binding experiments, the adherent Hep-2 cells were grown to confluency, trypsinized, collected and seeded in large. Petri dishes (150 cm^2) at a density of 2.5×10^6 cells/ml. Subsequently, the dishes were placed in a CO2 -incubator overnight. Because Hep-2 cells are not strongly adherent, the cells could be harvested the same way as the non-adherent cells. Dulbecco's medium, supplemented with 10% inactivated newborn calf serum was used for L929 cell growth. […] A ten well dilution series of unlabeled mutant TNF ([…] to 0.004 μM) in concentration steps in multiples of 2 was set up in a microtiterplate. […] After addition of 2×10^6 cells, the total volume was 0.2 ml/well. The medium of incubation, reaction conditions and isolation of the cells were exactly the same as described above for the Scatchard analysis experiments. […] The following experimental data were used for such calculations: From each experiment shown in these tables, the KD value was calculated using the programm of Mc. Pherson et al. (1985).

mouse L929 cells = assay: Standard L929 cytotoxicity assay; type: cell-based; details: relative to TNF-α
Method: as §2

human p75-TNF-R = assay: Filter binding competition of 125I-TNFα on purified p75-TNF-R from HL60 cells
Method: as §1

For “Trp^32 -TNFα: TNF-α mutein with tryptophan substituted at position 32, SEQ ID No: 9”, the “Decrease in Affinity” value (human p55-TNF-R) was 1.5 fold, the “biological activity (specific activity) on Hep-2 cells” value (Hep-2 cells) was “largely retained” and the “binding affinity for p75-TNF-R as share of its binding affinity to p55-TNF-R” value [1] was “about 3%”. The Mean dpm ([1]; experiment 1, U937 cells, concentration of mutant 1 × 10^-6) was 777 dpm, the Mean dpm ([1]; experiment 1, U937 cells, concentration of mutant 1 × 10^-9) was 1917 dpm and the Mean dpm ([1]; experiment 1, U937 cells, concentration of mutant 1.25 × 10^-7) was 1166 dpm. The Mean dpm ([1]; experiment 1, U937 cells, concentration of mutant 1.5 × 10^-8) was 1488 dpm, the Mean dpm ([1]; experiment 1, U937 cells, concentration of mutant 2 × 10^-6) was 628 dpm and the Mean dpm ([1]; experiment 1, U937 cells, concentration of mutant 2 × 10^-9) was 1698 dpm. For the same substance, the Mean dpm ([1]; experiment 1, U937 cells, concentration of mutant 3 × 10^-8) was 1377 dpm, the Mean dpm ([1]; experiment 1, U937 cells, concentration of mutant 4 × 10^-9) was 1655 dpm and the Mean dpm ([1]; experiment 1, U937 cells, concentration of mutant 5 × 10^-7) was 953 dpm. For the same substance, the Mean dpm ([1]; experiment 1, U937 cells, concentration of mutant 6 × 10^-8) was 1333 dpm, the Mean dpm ([1]; experiment 1, U937 cells, concentration of mutant 8 × 10^-9) was 1585 dpm and the Mean dpm ([1]; experiment 1, U937 cells, concentration of mutant […] 10^-7) was 1026 dpm. The Mean dpm ([1]; experiment 2, U937 cells, concentration of mutant 1.10^-6) was 357 dpm, the Mean dpm ([1]; experiment 2, U937 cells, concentration of mutant 1.2 × 10^-7) was 508 dpm and the Mean dpm ([1]; experiment 2, U937 cells, concentration of mutant 1.5 × 10^-8) was 636 dpm. It also gave a Mean dpm ([1]; experiment 2, U937 cells, concentration of mutant 2 × 10^-6) of 294 dpm, a Mean dpm ([1]; experiment 2, U937 cells, concentration of mutant 3 × 10^-8) of 585 dpm and a Mean dpm ([1]; experiment 2, U937 cells, concentration of mutant 4 × 10^9) of 653 dpm. The Mean dpm ([1]; experiment 2, U937 cells, concentration of mutant 5 × 10^-7) was 422 dpm, the Mean dpm ([1]; experiment 2, U937 cells, concentration of mutant 6 × 10^-8) was 546 dpm and the Mean dpm ([1]; experiment 2, U937 cells, concentration of mutant 8 × 10^-9) was 629 dpm. It also gave a Mean dpm ([1]; experiment 2, U937 cells, concentration of mutant […] 10^-7) of 479 dpm, a Mean dpm ([1]; experiment 3 (125I-TNF batch 2), U937 cells, concentration of mutant 1 × 10^-6) of 1192 dpm and a Mean dpm ([1]; experiment 3 (125I-TNF batch 2), U937 cells, concentration of mutant 1.25 × 10^-7) of 2387 dpm. It also gave a Mean dpm ([1]; experiment 3 (125I-TNF batch 2), U937 cells, concentration of mutant 1.5 × 10^-8) of 3620 dpm, a Mean dpm ([1]; experiment 3 (125I-TNF batch 2), U937 cells, concentration of mutant 2 × 10^-6) of 814 dpm and a Mean dpm ([1]; experiment 3 (125I-TNF batch 2), U937 cells, concentration of mutant 3 × 10^-8) of 3275 dpm. It also gave a Mean dpm ([1]; experiment 3 (125I-TNF batch 2), U937 cells, concentration of mutant 4 × 10^-9) of 4759 dpm, a Mean dpm ([1]; experiment 3 (125I-TNF batch 2), U937 cells, concentration of mutant 5 × 10^-7) of 1472 dpm and a Mean dpm ([1]; experiment 3 (125I-TNF batch 2), U937 cells, concentration of mutant 6 × 10^-8) of 3034 dpm. The Mean dpm ([1]; experiment 3 (125I-TNF batch 2), U937 cells, concentration of mutant 8 × 10^-9) was 4041 dpm, the Mean dpm ([1]; experiment 3 (125I-TNF batch 2), U937 cells, concentration of mutant […] 10^-7) was 1981 dpm and the “reduction of binding affinity for p75-TNF-R” value ([1]; relative to its binding affinity to p55-TNF-R) was “approximately 33 fold”. For the same substance, the “decrease of biological activity on L929 cells (factor)” value (mouse L929 cells) was “more than 100”, the IC50 (human p75-TNF-R; competition with 125I-TNFα) was 5 µg/mL and the “Decrease in Affinity” value (human p75-TNF-R; with respect to TNFα) was 500 fold.
